Assay results from patent US20220304992A1, “METHODS OF REJUVENATING AGED TISSUE BY INHIBITING 15-HYDROXYPROSTAGLANDIN DEHYDROGENASE (15-PGDH)” (The Board of Trustees of the Leland Stanford Junior …, priority 2019, published 2022).
“Also recorded” adds a separate entry of the source.

How the values were obtained:
[1] = system: bone marrow, colon, lung, and liver; conditions: cited from earlier work
[2] = system: aged muscle transcriptome; test: RNA sequencing of vehicle and SW treated aged muscles; format: in vivo, mouse; conditions: SW 1 month
Source text: For RNA-seq, RNA was isolated from muscle lysates using Trizol reagent (Thermoscientific) and purified using Qiagen RNAEasy kit from. Libraries were constructed from RNA with the TruSEQ RNA Library Preparation Kit v2 (Illumina) and sequenced to 30-40×10^6×75-bp reads per sample on a NextSeq 550 from the Stanford Functional Genomics Facility.
For the RNA-Seq analysis, the sequences were aligned against the Mus musculus genome (mm9) using STAR (16). RSEM was used for calling transcripts and calculating transcripts per million (TPM) values as well as total counts (17). A counts matrix containing the number of counts for each gene and each sample was obtained. This matrix was analyzed by DESeq2 to calculate statistical analysis of significance of genes between samples (18). […] Heatmaps were generated on normalized counts and plotted on Z-score across rows using Seaborn data visualization library in python. The data reported in this paper have been deposited in the Gene Expression Omnibus (GEO) database GSE149924.

CCCC[S+]([O-])c1sc2nc(-c3cccs3)cc(-c3ccccc3)c2c1N (stereo not drawn) [SW033291, 2-(butylsulfinyl)-4-phenyl-6-(thiophen-2-yl)thieno[2,3-b]pyridin-3-amine]
increase of PGE2 levels in vivo [1]: 2 fold
Hdac4 expression [2]: diminished
components of mitochondria complexes I, II, IV and V of the electron transport chain [2]: markedly increased
members of ubiquitin signaling pathways [2]: downregulated
mitochondrial pathways (KEGG/GO enrichment of upregulated genes) [2]: strong enrichment
expression of TGF-beta pathway genes (Mstn, Tgfb2, Acvr2a, Smad3) ([2]; listed as SW): decreased; also recorded: markedly reduced
